In experiment [1] the test system is IL-1β release upon NLRP3 activation in peripheral blood mononuclear cells (PBMC). In words: PBMC IC50 determination assay (IL-1β release, LPS priming + ATP stimulation, HTRF). Format: cell-based. Particulars: PBMC from buffy coats; LPS 1 μg/ml 3 h, compound 30 min, ATP 5 mM 1 h; IL-1β by HTRF. Summed up:
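Buffy-coat PBMC were primed with LPS (1 μg/ml) for 3 h, given compound for 30 min, then stimulated with 5 mM ATP for 1 h. IL-1β released into the medium was quantified by HTRF, reading 655 and 620 nm.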

The test system of experiment [2] is IL-1β release upon NLRP3 activation in human whole blood. In words: Whole blood (WB) assay (IL-1β release, LPS priming + ATP stimulation, HTRF). Format: cell-based. Conditions: heparin, diluted 9:5 with media, LPS 1 μg/ml 3 h, compound 30 min, ATP 5 mM 1 h, IL-1β by HTRF. A digest of the protocol:
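Heparinised human whole blood, diluted 9:5 in medium, was primed with LPS (1 μg/ml final) for 3 h. Compound was then added for 30 min, followed by ATP (5 mM final) for 1 h. Secreted IL-1β was measured in the media by HTRF (655/620 nm).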

This passage reports IC50 results from patent publication US12624023B2, “Sulfonylurea derivatives and uses thereof” (NodThera Limited, priority 2019, dated 2026).

Turning to `CCc1oc2c(c1NC(=O)NS(=O)(=O)N(c1cnn(C)c1)C1CCCN(C)C1)CCCC2` (centres unmarked) [Compound 94, 3-(2-Ethyl-4,5,6,7-tetrahydro-1-benzofuran-3-yl)-1-[(1-methyl-1H-pyrazol-4-yl)(1-methylpiperidin-3-yl)sulfamoyl]urea], the values for the IC50 in experiment [1] and in experiment [2] were 100 to 500 nM and less than 1000 nM, respectively.
Regarding `Cc1sc2c(c1NC(=O)NS(=O)(=O)N(c1cnn(C)c1)[C@@H]1CCCN(C)C1)CCC2` [Compound 95, 1-[(1-Methyl-1H-pyrazol-4-yl)[(3R)-1-methylpiperidin-3-yl]sulfamoyl]-3-{2-methyl-4H,5H,6H-cyclopenta[b]thiophen-3-yl}urea], the values for the IC50 in experiment [1] and in experiment [2] were 100 to 500 nM and less than 1000 nM, respectively.
As for `CC(C)c1cc(NC(=O)NS(=O)(=O)N(c2cnn(C)c2)[C@H]2C[C@@H](F)CN(C)C2)c(C(C)C)s1` [Compound 96, 3-[2,5-Bis(propan-2-yl)thiophen-3-yl]-1-{[(3S,5R)-5-fluoro-1-methylpiperidin-3-yl](1-methyl-1H-pyrazol-4-yl)sulfamoyl}urea], the IC50 was in the range of 100 to 500 nM in experiment [1] and 3000 to 10000 nM in experiment [2].
On to `Cc1sc2c(c1NC(=O)NS(=O)(=O)N(c1cnn(C)c1)C1CCCN(C)C1)CCCC2` (centres unmarked) [Compound 97, 1-[(1-Methyl-1H-pyrazol-4-yl)(1-methylpiperidin-3-yl)sulfamoyl]-3-(2-methyl-4,5,6,7-tetrahydro-1-benzothiophen-3-yl)urea], for which the IC50 is 100 to 500 nM in experiment [1] and less than 1000 nM in experiment [2].
With `CN1CCCC(N(c2cnn(C)c2)S(=O)(=O)NC(=O)Nc2c(C(F)(F)F)sc3c2CCC3)C1` (centres unmarked) [Compound 98, 1-[(1-Methyl-1H-pyrazol-4-yl)(1-methylpiperidin-3-yl)sulfamoyl]-3-[2-(trifluoromethyl)-4H,5H,6H-cyclopenta[b]thiophen-3-yl]urea], the IC50 in experiment [1] lay within 100 to 500 nM; in experiment [2], 1000 to 3000 nM.
Regarding `CC(C)c1cc(NC(=O)NS(=O)(=O)N(c2cnn(C3CC3)c2F)C2CCCN(C)C2)c(C(C)C)s1` (centres unmarked) [Compound 99, 3-[2,5-Bis(propan-2-yl)thiophen-3-yl]-1-[(1-cyclopropyl-5-fluoro-1H-pyrazol-4-yl)(1-methylpiperidin-3-yl)sulfamoyl]urea], the results for the IC50 in experiment [1] and in experiment [2] were less than 100 nM and 1000 to 3000 nM, respectively.
Turning to `Cc1cc(NC(=O)NS(=O)(=O)N(c2cnn(C)c2)C2CCN(C)CC2)c(C(C)C)s1` [Compound 100, 1-[(1-Methyl-1H-pyrazol-4-yl)(1-methylpiperidin-4-yl)sulfamoyl]-3-[5-methyl-2-(propan-2-yl)thiophen-3-yl]urea], the figures for the IC50 in experiment [1] and in experiment [2] were 100 to 500 nM and less than 1000 nM, respectively.
As to `Cc1cc(NC(=O)NS(=O)(=O)N(c2cnn(C)c2F)C2CCN(C)CC2)c(C(C)C)s1` [Compound 101, 1-[(5-Fluoro-1-methyl-1H-pyrazol-4-yl)(1-methylpiperidin-4-yl)sulfamoyl]-3-[5-methyl-2-(propan-2-yl)thiophen-3-yl]urea], the IC50 in experiment [1] is less than 100 nM; in experiment [2], less than 1000 nM.
The matching figures for `COc1sc2c(c1NC(=O)NS(=O)(=O)N(c1cnn(C)c1)C1CCCN(C)C1)CCC2` (centres unmarked) [Compound 102, 3-{2-Methoxy-4H,5H,6H-cyclopenta[b]thiophen-3-yl}-1-[(1-methyl-1H-pyrazol-4-yl)(1-methylpiperidin-3-yl)sulfamoyl]urea]: 100 to 500 nM and 1000 to 3000 nM.
On to `Cc1cc(NC(=O)NS(=O)(=O)N(c2cnn(C3CC3)c2)[C@H]2CCCN(C)C2)c(C(C)C)s1` [Compound 103, 1-[(1-Cyclopropyl-1H-pyrazol-4-yl)[(3S)-1-methylpiperidin-3-yl]sulfamoyl]-3-[5-methyl-2-(propan-2-yl)thiophen-3-yl]urea], for which the 50% inhibitory concentration (IC50) is less than 100 nM in experiment [1] and less than 1000 nM in experiment [2].
Consider `Cc1cc(NC(=O)NS(=O)(=O)N(c2cnn(C3CC3)c2)[C@@H]2CCCN(C)C2)c(C(C)C)s1` [Compound 104, 1-[(1-Cyclopropyl-1H-pyrazol-4-yl)[(3R)-1-methylpiperidin-3-yl]sulfamoyl]-3-[5-methyl-2-(propan-2-yl)thiophen-3-yl]urea], for which the figures for the IC50 in experiment [1] and in experiment [2] were less than 100 nM and less than 1000 nM, respectively.
Take `Cc1cc(NC(=O)NS(=O)(=O)N(c2cnn(C3CC3)c2)[C@@H]2CCCN(C)C2)c(C2CC2)s1` [Compound 106, 1-[(1-Cyclopropyl-1H-pyrazol-4-yl)[(3R)-1-methylpiperidin-3-yl]sulfamoyl]-3-(2-cyclopropyl-5-methylthiophen-3-yl)urea]: the IC50 in experiment [1] was in the range of 100 to 500 nM; in experiment [2] it was 1000 to 3000 nM.
As for `Cc1cc(NC(=O)NS(=O)(=O)N(c2cnn(C)c2)[C@H]2CCCN(C)C2)c(C2CC2)s1` [Compound 107, 3-(2-Cyclopropyl-5-methylthiophen-3-yl)-1-[(1-methyl-1H-pyrazol-4-yl)[(3S)-1-methylpiperidin-3-yl]sulfamoyl]urea], the concentration for half-maximal inhibition (IC50) in experiment [1] lay within 100 to 500 nM; in experiment [2], 1000 to 3000 nM.
For `Cc1cc(NC(=O)NS(=O)(=O)N(c2cnn(C)c2)[C@@H]2CCCN(C)C2)c(C2CC2)s1` [Compound 108, 3-(2-Cyclopropyl-5-methylthiophen-3-yl)-1-[(1-methyl-1H-pyrazol-4-yl)[(3R)-1-methylpiperidin-3-yl]sulfamoyl]urea], the IC50 in experiment [1] was less than 100 nM; in experiment [2], 1000 to 3000 nM.
As for `Cc1sc2c(c1NC(=O)NS(=O)(=O)N(c1cnn(C)c1)C1CCN(C)CC1)CCC2` [Compound 109, 1-[(1-Methyl-1H-pyrazol-4-yl)(1-methylpiperidin-4-yl)sulfamoyl]-3-{2-methyl-4H,5H,6H-cyclopenta[b]thiophen-3-yl}urea], the IC50 in experiment [1] fell in the range of 100 to 500 nM; in experiment [2] it was 1000 to 3000 nM.
As to `Cc1sc2c(c1NC(=O)NS(=O)(=O)N(c1cnn(C)c1)[C@H]1C[C@H](F)CN(C)C1)CCC2` [Compound 110, 1-{[(3S,5S)-5-Fluoro-1-methylpiperidin-3-yl](1-methyl-1H-pyrazol-4-yl)sulfamoyl}-3-{2-methyl-4H,5H,6H-cyclopenta[b]thiophen-3-yl}urea], the IC50 lay in the range of 100 to 500 nM in experiment [1] and 1000 to 3000 nM in experiment [2].
`Cc1cc(NC(=O)NS(=O)(=O)N(c2cnn(C)c2)[C@H]2C[C@H](F)CN(C)C2)c(C(C)C)s1` [Compound 111, 1-{[(3S,5S)-5-Fluoro-1-methylpiperidin-3-yl](1-methyl-1H-pyrazol-4-yl)sulfamoyl}-3-[5-methyl-2-(propan-2-yl)thiophen-3-yl]urea]: the 50% inhibitory concentration (IC50) in experiment [1] is 100 to 500 nM; in experiment [2], 1000 to 3000 nM.
In the case of `Cc1cc(NC(=O)NS(=O)(=O)N(c2cnn(C3CC3)c2)C2CCCN(C)C2)c(C(C)C)s1` (centres unmarked) [Compound 112, 1-[(1-Cyclopropyl-1H-pyrazol-4-yl)(1-methylpiperidin-3-yl)sulfamoyl]-3-[5-methyl-2-(propan-2-yl)thiophen-3-yl]urea], the IC50 in experiment [1] was less than 100 nM; in experiment [2] it was less than 1000 nM.
With `Cc1sc2c(c1NC(=O)NS(=O)(=O)N(c1cnn(C3CC3)c1F)C1CCCN(C)C1)CCC2` (centres unmarked) [Compound 113, 1-[(1-Cyclopropyl-5-fluoro-1H-pyrazol-4-yl)(1-methylpiperidin-3-yl)sulfamoyl]-3-{2-methyl-4H,5H,6H-cyclopenta[b]thiophen-3-yl}urea], the figures for the 50% inhibitory concentration (IC50) in experiment [1] and in experiment [2] were less than 100 nM and less than 1000 nM, respectively.
With `Cc1cc(NC(=O)NS(=O)(=O)N(c2cnn(C3CC3)c2F)C2CCCN(C)C2)c(C(C)C)s1` (centres unmarked) [Compound 114, 1-[(1-Cyclopropyl-5-fluoro-1H-pyrazol-4-yl)(1-methylpiperidin-3-yl)sulfamoyl]-3-[5-methyl-2-(propan-2-yl)thiophen-3-yl]urea], the IC50 in experiment [1] was less than 100 nM; in experiment [2], less than 1000 nM.
As to `Cc1cc(NC(=O)NS(=O)(=O)N(c2cnn(C)c2F)C2CCCN(C)C2)c(C(C)C)s1` (centres unmarked) [Compound 115, 1-[(5-Fluoro-1-methyl-1H-pyrazol-4-yl)(1-methylpiperidin-3-yl)sulfamoyl]-3-[5-methyl-2-(propan-2-yl)thiophen-3-yl]urea], the results for the IC50 in experiment [1] and in experiment [2] were less than 100 nM and less than 1000 nM, respectively.
For `Cc1sc2c(c1NC(=O)NS(=O)(=O)N(c1cnn(C)c1)[C@H]1CCCN(C)C1)CCC2` [Compound 116, 1-[(1-Methyl-1H-pyrazol-4-yl)[(3S)-1-methylpiperidin-3-yl]sulfamoyl]-3-{2-methyl-4H,5H,6H-cyclopenta[b]thiophen-3-yl}urea] the same measures were less than 100 nM and less than 1000 nM.
The matching figures for `Cc1sc(C(F)(F)F)cc1NC(=O)NS(=O)(=O)N(c1cnn(C)c1)C1CCCN(C)C1` (centres unmarked) [Compound 117, 1-[(1-Methyl-1H-pyrazol-4-yl)(1-methylpiperidin-3-yl)sulfamoyl]-3-[2-methyl-5-(trifluoromethyl)thiophen-3-yl]urea]: 100 to 500 nM and less than 1000 nM.
For `Cc1sc2c(c1NC(=O)NS(=O)(=O)N(c1cnn(C3CC3)c1)C1CCCN(C)C1)CCC2` (centres unmarked) [Compound 118, 1-[(1-Cyclopropyl-1H-pyrazol-4-yl)(1-methylpiperidin-3-yl)sulfamoyl]-3-{2-methyl-4H,5H,6H-cyclopenta[b]thiophen-3-yl}urea], the 50% inhibitory concentration (IC50) is less than 100 nM in experiment [1] and less than 1000 nM in experiment [2].
The matching figures for `Cc1sc2c(c1NC(=O)NS(=O)(=O)N(c1cnn(C)c1F)C1CCCN(C)C1)CCC2` (centres unmarked) [Compound 119, 1-[(5-Fluoro-1-methyl-1H-pyrazol-4-yl)(1-methylpiperidin-3-yl)sulfamoyl]-3-{2-methyl-4H,5H,6H-cyclopenta[b]thiophen-3-yl}urea]: less than 100 nM and less than 1000 nM.
